Test results: patent publication US20110250184A1, “METHODS FOR DETERMINING EFFICACY OF A THERAPEUTIC REGIMEN AGAINST DELETERIOUS EFFECTS OF CYTOTOXIC AGENTS IN HUMAN” (priority 2008, published 2011)
Entries after “also recorded” stand apart in the source; their conditions may differ.

Assays:
[1] = molecular target: CYP450 2C9 (Homo sapiens, UniProt P11712); format: in vitro ADME
Experimental: Additional biochemical studies were performed to screen for potential secondary or non-specific activities. ON 01210.Na was subjected to in vitro primary screening across a broad panel of 67 radioligand receptor binding assays and five cytochrome P450 enzymes: 1A2, 2C9, 2C19, 3A4, and 2D6. […] Only one cytochrome assay, CYP450 2C9, in which the activity was […] 98%, yielded a response that was considered significant. Thus, as a preliminary screen for safety and selectivity profiling, no targets were identified.

[2] = test system: bone marrow of irradiated mice; assay: In vivo radiation protection assay, bone marrow colony forming units of irradiated mice; parameters: species or system C3H/HEJ mice; settings: for Differential colony counts, GM / Differential colony counts, Granulocytes / Differential colony counts, Macrophages / Differential colony counts, Total CFU: 500 mg/kg sc -24 h and -15 min
Experimental: (§1) FIG. 4. ON 01210.Na protects the bone marrow of irradiated mice. A. Mice were injected with 500 mg/kg of ON 01210.Na formulated in 1% Polysorbate 80/K-phosphate buffer or vehicle alone by sc injections minus 24 hrs and minus 15 minutes before 5.5 Gy of whole body ionizing radiation treatment. Whole blood was collected on the indicted days and WBC counts were performed following RBC lysis. The data is plotted as the average of three mice per group +/−SEM (N:3×3=9 plates). B. Pictures of representative plates. […] C. White blood cell counts. Whole blood was collected on the indicted days and WBC counts were performed following RBC lysis. The data is plotted as the average of 3 mice per group±SEM (N=3).
(§2) Since survival of animals after radiation exposure depends largely on the protection of the hematopoietic system, the effect of ON 01210.Na treatment on hematopoietic cell survival was investigated using various schedules before radiation exposure. The radioprotection of hematopoietic cells by ON 01210.Na was studied in an in vivo assay using a sub lethal dose of radiation. C3H/HEJ mice were treated with ON 01210.Na following various schedules in order to determine the optimal dose and schedule of ON 01210.Na for maximum protection of the hematopoietic system in mice.
as §1, with “A.” for “FIG. 4. ON 01210.Na protects the bone marrow of irradiated mice. A.”, “group+/−SEM” for “group +/−SEM”, “(N=3). Lineage specific protection was studied by identifying and tabulating three lineages, granulocytes, macrophages and granulocyte-macrophages (GM).” for “(N=3).”
In order to determine the optimal schedule of ON 01210.Na treatment for maximum protection of the bone marrow, bone marrow protection of mice injected with a single dose of ON 01210.Na at minus 15 minutes or minus 4 hours was compared with mice injected with two doses described above. The most efficient protection of the bone marrow was found when the mice were injected at minus 24 hours and minus 15 minutes before radiation exposure. […] These experiments imply that a single injection just before exposure will protect and increase the recovery of bone marrow cells after radiation exposure.

[3] = test system: DNA damage; assay: Comet assay, DNA damage caused by irradiation of cells; format: cell-based
[4] = test system: jejunal crypt stem cells; assay: Gastrointestinal tissue damage in irradiated mice; format: in vivo; settings: pretreated prior to irradiation
[5] = test system: mice exposed to lethal doses of whole body ionizing radiation; assay: In vivo survival studies in mice after lethal whole body radiation (30-day survival model)
Experimental: as §2
In vivo survival studies in mice were designed to explore the effects of dose and schedule on survival, based on the well-established 30-day survival model, establish a dose reduction factor (DRF) for ON 01210.Na, compare two different formulations (suspension vs. solution) of ON 01210.Na; and show protection and recovery benefits of ON 01210.Na to the hematopoietic system and gastrointestinal tract of treated mice.
Two dose reduction factor (DRF) studies determined that the DRF for ON 01210.Na was 1.14 to 1.16.

[6] = test system: human umbilical vein endothelial cells; assay: In vitro clonogenic survival assay, endothelial cells; format: cell-based
[7] = test system: white blood cells; assay: White blood cell counts of irradiated mice; format: in vivo, C3H/HEJ mice
Experimental: as §1
A. Mice were injected with 500 mg/kg of ON 01210.Na formulated in 1% Polysorbate 80/K-phosphate buffer or vehicle alone by sc injections minus 24 hrs and minus 15 minutes before 5.5 Gy of whole body ionizing radiation treatment. Whole blood was collected on the indicted days and WBC counts were performed following RBC lysis. The data is plotted as the average of three mice per group+/−SEM (N:3×3=9 plates). […]
In addition to examining the ability of ON 01210.Na to protect bone marrow cells, the protection of peripheral white blood cells was also examined. Whole blood was collected and the total number of white blood cells was determined at various times after radiation exposure.

[8] = test system: human skin fibroblasts; assay: In vitro clonogenic survival assay, skin fibroblasts; format: cell-based
[9] = Free radical scavenger / antioxidant activity

Chain of CYP450 2C9 (P11712 whole entry): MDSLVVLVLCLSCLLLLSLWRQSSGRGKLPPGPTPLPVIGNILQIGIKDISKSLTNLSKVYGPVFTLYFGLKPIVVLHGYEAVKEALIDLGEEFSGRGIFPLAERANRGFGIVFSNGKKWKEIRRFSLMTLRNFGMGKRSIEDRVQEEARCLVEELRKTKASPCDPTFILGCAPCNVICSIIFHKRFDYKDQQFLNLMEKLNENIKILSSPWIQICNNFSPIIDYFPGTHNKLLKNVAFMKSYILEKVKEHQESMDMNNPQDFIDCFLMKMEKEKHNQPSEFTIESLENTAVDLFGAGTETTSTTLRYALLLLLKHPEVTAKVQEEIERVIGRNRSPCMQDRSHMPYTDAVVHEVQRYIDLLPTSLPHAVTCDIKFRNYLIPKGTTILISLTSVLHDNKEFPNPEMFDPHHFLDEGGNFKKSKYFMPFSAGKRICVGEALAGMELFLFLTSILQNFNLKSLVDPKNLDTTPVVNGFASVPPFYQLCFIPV

Q: Which results are given for `O=C([O-])c1ccc(/C=C/S(=O)(=O)Cc2ccc(Cl)cc2)cc1.[Na+]` [ON 01210.Na, E-4-Carboxystyryl-4-chlorobenzylsulfone sodium salt]?
A: CYP450 2C9 activity, stimulation [1]: 98%; Differential colony counts, GM ([2]; 5.5 Gy IR, day 4): 8; Differential colony counts, Granulocytes ([2]; 5.5 Gy IR, day 4): 9; Differential colony counts, Macrophages ([2]; 5.5 Gy IR, day 4): 4; Differential colony counts, Total CFU ([2]; 5.5 Gy IR, day 4): 21; Differential colony counts, GM ([2]; 5.5 Gy IR, day 7): 9; Differential colony counts, Granulocytes ([2]; 5.5 Gy IR, day 7): 13; Differential colony counts, Macrophages ([2]; 5.5 Gy IR, day 7): 2; Differential colony counts, Total CFU ([2]; 5.5 Gy IR, day 7): 24; Differential colony counts, GM ([2]; 5.5 Gy IR, day 12): 16; Differential colony counts, Granulocytes ([2]; 5.5 Gy IR, day 12): 16; Differential colony counts, Macrophages ([2]; 5.5 Gy IR, day 12): 5; Differential colony counts, Total CFU ([2]; 5.5 Gy IR, day 12): 37; Differential colony counts, GM ([2]; 5.5 Gy IR, day 18): 72; Differential colony counts, Granulocytes ([2]; 5.5 Gy IR, day 18): 58; Differential colony counts, Macrophages ([2]; 5.5 Gy IR, day 18): 16; Differential colony counts, Total CFU ([2]; 5.5 Gy IR, day 18): 146; Differential colony counts, GM ([2]; No IR, day 4): 111; Differential colony counts, Granulocytes ([2]; No IR, day 4): 27; Differential colony counts, Macrophages ([2]; No IR, day 4): 9; Differential colony counts, Total CFU ([2]; No IR, day 4): 147; Differential colony counts, GM ([2]; No IR, day 7): 120; Differential colony counts, Granulocytes ([2]; No IR, day 7): 18; Differential colony counts, Macrophages ([2]; No IR, day 7): 5; Differential colony counts, Total CFU ([2]; No IR, day 7): 143; Differential colony counts, GM ([2]; No IR, day 12): 116; Differential colony counts, Granulocytes ([2]; No IR, day 12): 64; Differential colony counts, Macrophages ([2]; No IR, day 12): 14; Differential colony counts, Total CFU ([2]; No IR, day 12): 194; Differential colony counts, GM ([2]; No IR, day 18): 119; Differential colony counts, Granulocytes ([2]; No IR, day 18): 39; Differential colony counts, Macrophages ([2]; No IR, day 18): 39; Differential colony counts, Total CFU ([2]; No IR, day 18): 197; protection and recovery of the bone marrow ([2]; 500 mg/kg sc -24 h and -15 min before 5.5 Gy whole body IR, sodium salt): significantly increased the recovery of the bone marrow; also recorded: significantly protected; Percent Colony Forming Units ([2]; administration -15 min relative to IR exposure, day 4): 9%; Percent Colony Forming Units ([2]; administration -15 min relative to IR exposure, day 7): 13%; Percent Colony Forming Units ([2]; administration -15 min relative to IR exposure, day 12): 17%; Percent Colony Forming Units ([2]; administration -15 min relative to IR exposure, day 18): 80%; Percent Colony Forming Units ([2]; administration -4 h relative to IR exposure, day 4): 6%; Percent Colony Forming Units ([2]; administration -4 h relative to IR exposure, day 7): 10%; Percent Colony Forming Units ([2]; administration -4 h relative to IR exposure, day 12): 12%; Percent Colony Forming Units ([2]; administration -4 h relative to IR exposure, day 18): 51%; Percent Colony Forming Units ([2]; administration -24 h and -15 min relative to IR exposure, day 4): 14%; Percent Colony Forming Units ([2]; administration -24 h and -15 min relative to IR exposure, day 7): 16%; Percent Colony Forming Units ([2]; administration -24 h and -15 min relative to IR exposure, day 12): 25%; Percent Colony Forming Units ([2]; administration -24 h and -15 min relative to IR exposure, day 18): 100%; macrophage colony number ([2]; mice injected without radiation exposure): slight increase; recovery of bone marrow versus vehicle ([2]; single injection 4 hours prior to radiation exposure, sodium salt): did not show a significant advantage; also recorded: not significantly increased; DNA damage caused by irradiation (Comet assays) [3]: reduced the amount of DNA damage; damage to the jejunal crypt stem cells [4]: significantly less damage; protection against radiation lethality ([5]; 50 mg/kg to 500 mg/kg, p<0.05 vs. vehicle): dose-dependent protection; protection from LD50/30 whole body radiation dose ([5]; 500 mg/kg pretreatment): completely and reproducibly protected; mice protected (survival) ([5]; double injection, minus 24 hour and minus 15 minutes, prior to lethal ionizing radiation): 100%; efficacy of solution formulation ([5]; same dosing regimen, solution formulation vs suspension): similarly effective; mice protected (survival) ([5]; single injection at minus 15 minutes prior to lethal ionizing radiation): 100%; protection from radiation exposure (clonogenic survival) [6]: protected; protection of white blood cells from radiation exposure ([7]; 500 mg/kg sc -24 h and -15 min before 5.5 Gy IR, sodium salt): significantly protected; recovery of white cell numbers ([7]; by 18 days): more rapid recovery; protection from radiation exposure (clonogenic survival) [8]: protected; activity as a free radical scavenger or antioxidant [9]: did not exhibit any significant activity
